“Also recorded” adds a separate entry of the source. No end group written: not given here.
How the values were obtained:
[1] = system: monocyte-platelet interactions; test: Monocyte-platelet interactions on platelet-coated plates under flow (receptor-ligand studies); type: cell-based, human
Procedure: Platelet-coated Vena8 channels were pre-treated with either 40 μg/ml anti-P-selectin (R&D Systems) or 40 μg/ml of an isotype control for 30 minutes at room temperature, then washed with 5× the volume RPMI. Mononuclear cell suspensions were pre-treated with either RGD or DGR peptides at a concentration of 2.5 mM. Video samples lasting 400 frames (26.3 seconds) were recorded 60 seconds after commencement of flow using a lower power field of view spanning 400 microns and centered at 7500 microns from the flow start point.
The monocyte-platelet interactions observed on video were divided into two categories: (1) short-acting, arbitrarily defined as contact occurring for less than 3 seconds (46 frames), and (2) long-acting, defined as contact longer than 3 seconds, including stable binding. Since it had been previously determined that the platelets in the ECP system were in an activated state, and that activated platelets express an array of proteins including P-selectin and RGD containing proteins (e.g. fibronectin, fibrinogen, and vitronectin), it was sought to determine the involvement, if any, of these proteins in either short or long-duration interactions. Plates were pre-coated with platelets, and four conditions tested: (1) platelets pre-treated with an irrelevant isotype control, and monocytes untreated (P+RGD+); (2) platelets pre-treated with an irrelevant isotype control, and monocytes pre-incubated with RGD peptides (P+RGD−); (3) platelets pre-treated with anti-P-selectin, and monocytes untreated (P−RGD+); (4) platelets pre-treated with anti-P-selectin, and monocytes pre-treated with RGD peptides (P−RGD−). It was assumed that pre-treating monocytes with RGD peptides should result in a decreased in the number of free RGD-recognizing receptors available to interact with RGD-containing proteins expressed by the platelets. […] As shown by FIG. 6, both short-acting and long-acting interactions were maximal when neither RGD nor P-selectin were blocked (P+RGD+); the level of interaction in all other conditions was expressed as a percentage of this maximum. […]

[2] = system: platelets; test: Platelet adhesion to protein-coated Vena8 channels under flow; type: cell-based, human; settings: for Platelet adhesion to fibrinogen-coated plates after pre-incubation of platelets with peptide / Platelet adhesion to fibronectin-coated plates after pre-incubation of platelets with peptide: PRP pre-incubated with 2 mM peptide 20 min
Procedure: Platelet adhesion experiments were performed using the Vena8 flow chamber described above. Fibrinogen and fibronectin (Sigma) were dissolved in PBS to a final concentration of 200 mcg/ml. Channels of the Vena8 chips were incubated at room temperature in a humidified chamber for 2 hours with the protein solution, autologous plasma, or PBS alone. The channels were washed with 5× the volume RPMI. Platelet-rich-plasma was then perfused through the protein-coated channel at the indicated shear-stress, held constant. For each channel, still images were acquired exactly 90 seconds into the experiment at 4 pre-defined low power fields located along the flow path (fields were centered at 2500, 7500, 12500, and 17500 microns from the start point of infusion).
Some experiments involved pre-treating platelet-rich-plasma with protein fragments prior to infusion through the channels. Small RGD peptides, containing the amino-acid sequence Arg-Gly-Asp-Ser; DRG peptides, contain the amino-acid sequence Ser-Asp-Gly-Arg; or fragment 400-411 of fibrinogen, containing the amino-acid sequence His-His-Leu-Gly-Gly-Ala-Lys-Gln-Ala-Gly-Asp-Val, were incubated at a concentration of 2 mM with PRP for 20 minutes at room temperature. The PRP was then perfused through the channels as previously described.

[3] = 0.5 dyne/cm2, relative to P+RGD+ maximum

Row | Substance | Long-duration (>3 s) monocyte-platelet interactions [1, 3] | Short-duration (<3 s) monocyte-platelet interactions [1, 3] | Decrease of long-duration monocyte-platelet interactions ([1]; monocytes pre-incubated with RGD peptides 2.5 mM (P+RGD−)) [%] | Platelet adhesion to fibrinogen-coated plates after pre-incubation of platelets with peptide [2] | Platelet adhesion to fibronectin-coated plates after pre-incubation of platelets with peptide [2] | Platelet adhesion to fibrinogen-coated plates after pre-incubation of platelets with peptide ([2]; listed as peptide fragments corresponding to amino acids 400-411 of fibrinogen) | Platelet adhesion to plates coated with the protein ([2]; coating 200 mcg/ml, wall shear stress 0.2 to 6.0 dyne/cm^2)
1 | Arg-Gly-Asp-Ser (RGDS; printed: Arg-Gly-Asp-Ser) [RGD peptides, small RGD peptides] | significant decrease | did not significantly alter; also recorded: no change | 44 | not significantly altered | decreased adhesion significantly | – | –
2 | HHLGGAKQAGDV [gamma fragments, gamma component of fibrinogen, amino acids 400-411] | – | – | – | decreased | had no effect | significantly decreased | –
3 | fibrinogen | – | – | – | – | – | – | highest concentrations of platelets adhered

Reference: patent US20160298082A1, “METHOD FOR OBTAINING IMMUNO-STIMULATORY DENDRITIC CELLS” (TRANSIMMUNE AG, priority 2013, published 2016)
